Experiment [1] has as its target T1, Orexin/Hypocretin receptor type 1 (Homo sapiens, UniProt O43613).
T1 sequence (O43613 whole entry): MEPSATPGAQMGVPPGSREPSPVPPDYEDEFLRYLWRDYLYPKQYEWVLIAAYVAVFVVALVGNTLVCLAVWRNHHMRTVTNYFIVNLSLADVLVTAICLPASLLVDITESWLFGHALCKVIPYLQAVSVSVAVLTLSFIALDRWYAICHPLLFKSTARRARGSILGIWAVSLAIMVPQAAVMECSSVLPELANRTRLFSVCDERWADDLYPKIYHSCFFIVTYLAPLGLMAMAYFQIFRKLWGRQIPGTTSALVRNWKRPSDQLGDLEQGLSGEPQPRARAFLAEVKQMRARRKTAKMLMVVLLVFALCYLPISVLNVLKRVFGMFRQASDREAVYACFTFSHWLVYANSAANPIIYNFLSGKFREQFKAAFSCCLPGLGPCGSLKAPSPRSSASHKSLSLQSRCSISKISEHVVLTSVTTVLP
Description: Effective agonist concentration to human orexin receptor type 1 determined using the Xlfit program. The experiment is classed as functional.

The next experiment addresses T2, Orexin receptor type 2 (Homo sapiens, UniProt O43614).
T2 sequence (O43614 whole entry): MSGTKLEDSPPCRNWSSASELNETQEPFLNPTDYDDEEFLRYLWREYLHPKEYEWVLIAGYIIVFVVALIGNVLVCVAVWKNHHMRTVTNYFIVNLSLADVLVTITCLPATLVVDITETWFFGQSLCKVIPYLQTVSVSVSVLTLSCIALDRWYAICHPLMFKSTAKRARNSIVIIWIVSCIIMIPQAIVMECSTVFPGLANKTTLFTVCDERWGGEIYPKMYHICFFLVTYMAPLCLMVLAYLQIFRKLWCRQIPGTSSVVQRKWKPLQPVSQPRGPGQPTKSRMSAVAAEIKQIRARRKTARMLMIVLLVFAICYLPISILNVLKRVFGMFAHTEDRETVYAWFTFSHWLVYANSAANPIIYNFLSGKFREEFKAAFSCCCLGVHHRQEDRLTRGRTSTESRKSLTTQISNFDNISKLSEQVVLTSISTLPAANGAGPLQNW
The experiment in a line: Effective agonist concentration to the human Orexin receptor type 2 was determined using the Xlfit program. The class given is functional.

Drawing on ChEMBL document CHEMBL1148480, “Structure-activity studies of orexin a and orexin B at the human orexin 1 and orexin 2 receptors led to orexin 2 receptor selective and orexin 1 receptor preferring ligands” (J Med Chem, 2004), this text covers EC50 for 14 compounds.

Non-standard residues stand in square brackets, D forms with d. Residues, ends and D or L forms follow the SMILES beside them. pGlu = O=C1CC[C@@H](C(=O)O)N1

The EC50 is the midpoint of the concentration-response curve. Lower therefore signals a more potent agent. For `CC(C)C[C@H](NC(=O)CNC(=O)[C@@H]1CCCN1C(=O)[C@@H]1CCCN1C(=O)CNC(=O)[C@H](CO)NC(=O)[C@@H](N)CCCN=C(N)N)C(=O)N[C@@H](CCC(N)=O)C(=O)NCC(=O)N[C@@H](CCCN=C(N)N)C(=O)O` (H-RSGPPGLQGR-OH), the EC50 (in experiment [1]; at Orexin receptor type 2) was more than 1000 µM throughout.

Take `CC[C@H](C)[C@H](NC(=O)CNC(=O)[C@H](C)NC(=O)[C@H](C)NC(=O)[C@H](Cc1cnc[nH]1)NC(=O)[C@H](C)NC(=O)CNC(=O)[C@H](CO)NC(=O)[C@H](C)NC(=O)[C@H](CCC(N)=O)NC(=O)[C@H](CC(C)C)NC(=O)[C@H](CC(C)C)NC(=O)[C@H](CCCNC(=N)N)NC(=O)[C@H](CCC(N)=O)NC(=O)[C@H](CC(C)C)NC(=O)[C@H](CCCNC(=N)N)NC(=O)CNC(=O)[C@H](CCC(N)=O)NC(=O)[C@H](CC(C)C)NC(=O)CN)C(=O)N[C@@H](CC(C)C)C(=O)N[C@H](C(=O)N[C@@H](CCSC)C(=O)O)[C@@H](C)O` (stereo in doubt; form 2): the results for the concentration for a half-maximal effect (EC50) (in experiment [1]; at Orexin receptor type 2) were 2.18 µM and 0.32 µM, respectively. In the same order, the values of `CC[C@H](C)[C@H](NC(=O)CNC(=O)[C@H](C)NC(=O)[C@H](C)NC(=O)[C@H](Cc1cnc[nH]1)NC(=O)[C@H](CC(N)=O)NC(=O)CNC(=O)[C@H](C)NC(=O)CNC(=O)[C@H](Cc1cnc[nH]1)NC(=O)[C@H](CC(C)C)NC(=O)[C@H](CC(C)C)NC(=O)[C@H](CCC(=O)O)NC(=O)[C@H](Cc1ccc(O)cc1)NC(=O)[C@H](CC(C)C)NC(=O)[C@H](CCCNC(=N)N)NC(=O)[C@H](CS)NC(=O)[C@@H](N)CO)C(=O)N[C@@H](CC(C)C)C(=O)N[C@H](C(=O)N[C@@H](CC(C)C)C(=O)O)[C@@H](C)O` (H-SCRLYELLHGAGNHAAGILTL-OH) are 1.03 µM and 0.45 µM. For `CC(C)C[C@H](NC(=O)[C@@H]1CCCN1C(=O)[C@@H]1CCC(=O)N1)C(=O)N1CCC[C@H]1C(=O)N[C@@H](CC(=O)O)C(=O)N[C@@H](CS)C(=O)N[C@@H](CS)C(=O)N[C@@H](CCCN=C(N)N)C(=O)N[C@@H](CCC(N)=O)C(=O)N[C@@H](CCCCN)C(=O)N[C@H](C(=O)N[C@@H](CS)C(=O)N[C@@H](CO)C(=O)O)[C@@H](C)O`, in that order: more than 1000 µM and more than 1000 µM. Turning to `CC[C@H](C)[C@H](NC(=O)CNC(=O)[C@H](C)NC(=O)[C@H](C)NC(=O)[C@H](Cc1c[nH]cn1)NC(=O)[C@H](CC(N)=O)NC(=O)CNC(=O)[C@@H](N)CO)C(=O)N[C@@H](CC(C)C)C(=O)N[C@H](C(=O)N[C@@H](CCSC)C(=O)O)[C@@H](C)O` (H-SGNHAAGILTM-OH), the 50% effective concentration (EC50) (in experiment [1]; on Orexin receptor type 2) was more than 1000 µM throughout. Consider `CC(C)C[C@H](NC(=O)CNC(=O)[C@@H]1CCCN1C(=O)[C@@H]1CCCN1C(=O)CNC(=O)[C@H](CO)NC(=O)[C@@H](N)CCCN=C(N)N)C(=O)N[C@@H](CCC(N)=O)C(=O)NCC(=O)N[C@@H](CCCN=C(N)N)C(=O)N[C@@H](CC(C)C)C(=O)N[C@@H](CCC(N)=O)C(=O)N[C@@H](CCCN=C(N)N)C(=O)N[C@@H](CC(C)C)C(=O)N[C@@H](CC(C)C)C(=O)N[C@@H](CCC(N)=O)C(=O)O` (H-RSGPPGLQGRLQRLLQ-OH), for which the concentration for a half-maximal effect (EC50) (in experiment [1]; at Orexin receptor type 2) was more than 1000 µM each time. `CC[C@H](C)[C@H](NC(=O)CNC(=O)[C@H](C)NC(=O)[C@@H]1CCCN1C(=O)[C@H](Cc1cnc[nH]1)NC(=O)[C@H](CC(N)=O)NC(=O)CNC(=O)[C@H](CO)NC(=O)[C@H](C)NC(=O)[C@H](CCC(N)=O)NC(=O)[C@H](CC(C)C)NC(=O)[C@H](CC(C)C)NC(=O)[C@H](CCCNC(=N)N)NC(=O)[C@H](CCC(N)=O)NC(=O)[C@H](CC(C)C)NC(=O)[C@H](CCCNC(=N)N)NC(=O)CNC(=O)[C@H](CCC(N)=O)NC(=O)[C@H](CC(C)C)NC(=O)CN)C(=O)N[C@@H](CC(C)C)C(=O)N[C@H](C(=O)N[C@@H](CCSC)C(=O)O)[C@@H](C)O` (H-GLQGRLQRLLQASGNHPAGILTM-OH): the values for the EC50 (in experiment [1]; on Orexin receptor type 2) were more than 1000 µM and 4.4 µM, respectively. In the same order, the values of `CC[C@H](C)[C@H](NC(=O)CNC(=O)[C@H](C)NC(=O)[C@H](C)NC(=O)[C@H](Cc1cnc[nH]1)NC(=O)[C@H](CC(N)=O)NC(=O)CNC(=O)[C@H](CO)NC(=O)[C@H](C)NC(=O)[C@H](CCC(N)=O)NC(=O)[C@H](CC(C)C)NC(=O)[C@H](CC(C)C)NC(=O)[C@H](CCCNC(=N)N)NC(=O)[C@H](CCC(N)=O)NC(=O)[C@H](CC(C)C)NC(=O)[C@H](CCCNC(=N)N)NC(=O)CNC(=O)[C@H](CCC(N)=O)NC(=O)[C@H](CC(C)C)NC(=O)CN)C(=O)N[C@@H](CC(C)C)C(=O)N1CCC[C@H]1C(=O)N[C@@H](CCSC)C(=O)O` (H-GLQGRLQRLLQASGNHAAGILPM-OH) are more than 1000 µM and 2.67 µM.

In the case of `CC[C@H](C)[C@H](NC(=O)CNC(=O)[C@H](C)NC(=O)[C@H](C)NC(=O)[C@H](Cc1cnc[nH]1)NC(=O)[C@H](CC(N)=O)NC(=O)CNC(=O)[C@H](C)NC(=O)CNC(=O)[C@H](Cc1cnc[nH]1)NC(=O)[C@H](CC(C)C)NC(=O)[C@H](CC(C)C)NC(=O)[C@H](CCC(=O)O)NC(=O)[C@H](Cc1ccc(O)cc1)NC(=O)[C@H](CC(C)C)NC(=O)[C@H](CCCNC(=N)N)NC(=O)CNC(=O)[C@@H]1CCCN1C(=O)[C@H](CC(=O)O)NC(=O)[C@@H]1CCCN1C(=O)[C@H](CC(C)C)NC(=O)[C@@H]1CCCN1C(=O)[C@@H]1CCC(=O)N1)C(=O)N[C@@H](CC(C)C)C(=O)N[C@H](C(=O)N[C@@H](CC(C)C)C(=O)O)[C@@H](C)O` ([pGlu]PLPDPGRLYELLHGAGNHAAGILTL-OH), the concentration giving a half-maximal response (EC50) in experiment [1] is 4.52 µM; at Orexin receptor type 2 it was 0.61 µM. For `CC[C@H](C)[C@H](NC(=O)CNC(=O)[C@H](C)NC(=O)[C@H](C)NC(=O)[C@@H]1CCCN1C(=O)[C@H](CC(N)=O)NC(=O)CNC(=O)[C@H](CO)NC(=O)[C@H](C)NC(=O)[C@H](CCC(N)=O)NC(=O)[C@H](CC(C)C)NC(=O)[C@H](CC(C)C)NC(=O)[C@H](CCCNC(=N)N)NC(=O)[C@H](CCC(N)=O)NC(=O)[C@H](CC(C)C)NC(=O)[C@H](CCCNC(=N)N)NC(=O)CNC(=O)[C@H](CCC(N)=O)NC(=O)[C@H](CC(C)C)NC(=O)CN)C(=O)N[C@@H](CC(C)C)C(=O)N[C@H](C(=O)N[C@@H](CCSC)C(=O)O)[C@@H](C)O` (H-GLQGRLQRLLQASGNPAAGILTM-OH), in that order: 1.89 µM and 0.84 µM.

`CC[C@H](C)[C@H](NC(=O)CNC(=O)[C@H](C)NC(=O)[C@H](C)NC(=O)[C@H](Cc1cnc[nH]1)NC(=O)[C@H](CC(N)=O)NC(=O)CNC(=O)[C@H](C)NC(=O)CNC(=O)[C@H](Cc1cnc[nH]1)NC(=O)[C@H](CC(C)C)NC(=O)[C@H](CC(C)C)NC(=O)[C@H](CCC(=O)O)NC(=O)[C@H](Cc1ccc(O)cc1)NC(=O)[C@H](CC(C)C)NC(=O)[C@H](CCCNC(=N)N)NC(=O)[C@H](CS)NC(=O)[C@H](CO)NC(=O)[C@H](CS)NC(=O)[C@@H](N)[C@@H](C)O)C(=O)N[C@@H](CC(C)C)C(=O)N[C@H](C(=O)N[C@@H](CC(C)C)C(=O)O)[C@@H](C)O` (H-TCSCRLYELLHGAGNHAAGILTL-OH): the half-maximal effective concentration (EC50) came to 1.21 µM in experiment [1] and 0.38 µM at Orexin receptor type 2. As for `CC[C@H](C)[C@H](NC(=O)CNC(=O)[C@H](C)NC(=O)[C@H](C)NC(=O)[C@H](Cc1cnc[nH]1)NC(=O)[C@H](CC(N)=O)NC(=O)CNC(=O)[C@H](CO)NC(=O)[C@H](C)NC(=O)[C@H](CCC(N)=O)NC(=O)[C@H](CC(C)C)NC(=O)[C@H](CC(C)C)NC(=O)[C@H](CCCNC(=N)N)NC(=O)[C@H](CCC(N)=O)NC(=O)[C@@H]1CCCN1C(=O)[C@H](CCCNC(=N)N)NC(=O)CNC(=O)[C@H](CCC(N)=O)NC(=O)[C@H](CC(C)C)NC(=O)CN)C(=O)N[C@@H](CC(C)C)C(=O)N[C@H](C(=O)N[C@@H](CCSC)C(=O)O)[C@@H](C)O` (H-GLQGRPQRLLQASGNHAAGILTM-OH), the 50% effective concentration (EC50) on Orexin receptor type 2 was found to be 0.79 µM. Still for that read-out and setting: to `CC[C@H](C)[C@H](NC(=O)CNC(=O)[C@H](C)NC(=O)[C@H](C)NC(=O)[C@H](Cc1cnc[nH]1)NC(=O)[C@H](CC(N)=O)NC(=O)CNC(=O)[C@H](CO)NC(=O)[C@H](C)NC(=O)[C@H](CCC(N)=O)NC(=O)[C@H](CC(C)C)NC(=O)[C@H](CC(C)C)NC(=O)[C@H](CCCNC(=N)N)NC(=O)[C@H](CCC(N)=O)NC(=O)[C@H](CC(C)C)NC(=O)[C@H](CCCNC(=N)N)NC(=O)CNC(=O)[C@@H](N)CCC(N)=O)C(=O)N[C@@H](CC(C)C)C(=O)N[C@H](C(=O)N[C@@H](CCSC)C(=O)O)[C@@H](C)O` (H-QGRLQRLLQASGNHAAGILTM-OH) belongs 1.22 µM; to `CC[C@H](C)[C@H](NC(=O)CNC(=O)[C@H](C)NC(=O)[C@H](C)NC(=O)[C@@H](N)Cc1cnc[nH]1)C(=O)N[C@@H](CC(C)C)C(=O)N[C@H](C(=O)N[C@@H](CC(C)C)C(=O)O)[C@@H](C)O` (H-HAAGILTL-OH), more than 1000 µM.
